In paper PMC10859541 (Journal of Pharmaceutical Analysis, 2023):
Like-named read-outs stand apart in the source and are kept apart here.

Tests used:
Assay in all cases: biolayer interferometry
Type in all cases: binding
[1] = biological target: T1, PX domain containing serine/threonine kinase-like (PXK) (Homo sapiens, UniProt Q7Z7A4)
T1 sequence (Q7Z7A4 1-578): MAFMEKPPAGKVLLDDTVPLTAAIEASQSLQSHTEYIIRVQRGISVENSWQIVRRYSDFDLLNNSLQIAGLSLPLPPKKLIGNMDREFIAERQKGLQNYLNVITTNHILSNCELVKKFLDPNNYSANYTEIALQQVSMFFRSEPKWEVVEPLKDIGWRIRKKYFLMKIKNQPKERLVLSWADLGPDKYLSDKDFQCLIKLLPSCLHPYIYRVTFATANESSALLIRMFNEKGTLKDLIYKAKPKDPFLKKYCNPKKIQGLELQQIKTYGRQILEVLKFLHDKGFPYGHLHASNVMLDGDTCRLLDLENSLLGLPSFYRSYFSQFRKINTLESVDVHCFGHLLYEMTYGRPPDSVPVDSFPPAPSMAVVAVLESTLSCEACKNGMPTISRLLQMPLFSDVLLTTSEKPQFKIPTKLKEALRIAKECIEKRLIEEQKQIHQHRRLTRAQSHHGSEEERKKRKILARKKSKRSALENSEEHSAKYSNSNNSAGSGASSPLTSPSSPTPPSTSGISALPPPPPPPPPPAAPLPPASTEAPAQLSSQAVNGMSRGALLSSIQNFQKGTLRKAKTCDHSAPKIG

metadherin (MTDH) [2] = biological target: T2, metadherin (MTDH) (Homo sapiens, UniProt Q86UE4)
T2 sequence (Q86UE4 1-582): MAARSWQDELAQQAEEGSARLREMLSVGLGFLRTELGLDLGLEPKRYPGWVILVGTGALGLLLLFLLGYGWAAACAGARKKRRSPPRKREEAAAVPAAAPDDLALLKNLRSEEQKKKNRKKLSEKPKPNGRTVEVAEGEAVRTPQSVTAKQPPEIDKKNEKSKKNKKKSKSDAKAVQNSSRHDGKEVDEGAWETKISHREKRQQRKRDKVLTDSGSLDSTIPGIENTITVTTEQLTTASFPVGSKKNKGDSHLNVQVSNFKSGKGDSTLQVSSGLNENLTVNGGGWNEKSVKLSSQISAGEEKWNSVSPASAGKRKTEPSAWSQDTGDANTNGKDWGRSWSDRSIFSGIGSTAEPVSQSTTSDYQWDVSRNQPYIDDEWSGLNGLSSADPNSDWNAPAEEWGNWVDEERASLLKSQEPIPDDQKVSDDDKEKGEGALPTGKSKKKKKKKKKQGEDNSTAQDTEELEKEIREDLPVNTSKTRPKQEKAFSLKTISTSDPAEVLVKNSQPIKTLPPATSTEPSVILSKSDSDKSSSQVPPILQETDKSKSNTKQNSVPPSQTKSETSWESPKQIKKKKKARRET

[3] = biological target: T1, PX domain containing serine/threonine kinase-like (PXK); remark: listed apart in the source
metadherin (MTDH) [4] = biological target: T2, metadherin (MTDH); remark: listed apart in the source

Kd [3] [µM]	SMILES	Kd [1] [µM]	Kd (metadherin (MTDH) [2]) [µM]	Kd (metadherin (MTDH) [4]) [µM]
	O=C(O[C@@H]1Cc2c(O)cc(O)cc2O[C@@H]1c1cc(O)c(O)c(O)c1)c1cc(O)c(O)c(O)c1 [EGCG]	2420	0.27	
1700	CC(=O)Oc1cc(OC(C)=O)c2c(c1)O[C@H](c1cc(OC(C)=O)c(OC(C)=O)c(OC(C)=O)c1)[C@H](OC(=O)c1cc(OC(C)=O)c(OC(C)=O)c(OC(C)=O)c1)C2 [ProEGCG]			517
